This note sets out measurements from paper PMC7577350 (ACS chemical biology, 2013).

Where two headings read alike, the source gives them in different places.

Common to all, as to type: cell-based
One data set concerns mock-infected MT-4 cells. The data set is described as follows: MTT cytotoxicity assay. (In general: Formazan colour is commonly taken as a measure of viable cells.)
In data set [1] the test system is HIV-1 (NL4-3 strain). The following applies: read-out: EC50 (μM) p24 assay, MT-4 cells.
For data set [2], the system named is HIV-1 (NL4-3 strain). The data set can be described thus: MTT anti-HIV assay. The following applies: read-out: EC50 (μM) MTT assay; MT-4 cells, HIV-1 NL4-3, Table 3.

With `Cc1cn([C@H]2C[C@H](N=[N+]=[N-])[C@@H](CO)O2)c(=O)[nH]c1=O` [AZT, reference compound], in the data set with mock-infected MT-4 cells, the CC50 (as a rule, the concentration giving 50% cytotoxicity) was over 100000 nM. In addition, the EC50 (as a rule, the concentration giving half of the maximal effect) is 0.02 µM in the data set on HIV-1 (NL4-3 strain) [1] (HIV-1 NL4-3, Table 3); 0.29 µM with HIV-1 (NL4-3 strain) [1] (HIV-1 NL4-3, Table 4); 0.07 µM with HIV-1 (NL4-3 strain) [2].
